In the supplement of paper PMC10307832:

Key:
Assay in all cases: relative viability (nuclei count vs DMSO), 5 days (fraction); higher = more cells survive
[1] = compound: C[C@@H](N)c1ccc(C(=O)Nc2ccnc3[nH]ccc23)cc1 + COc1cccc2cc(-c3nc([C@H]4CC[C@H](C(=O)O)CC4)n4ncnc(N)c34)[nH]c12 [OSI-027] (partner 0.5 µM)
How it was run: (§1)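 Relative viability divides the nuclei count in treated wells by that in vehicle wells. Lung cancer cell lines were seeded in 1536-well plates, dosed by pin tool the next day, and fixed and stained after 5 days in one step with final 0.05% Triton X-100, 1% formaldehyde and 1 ug/ml Hoechst. Dosing was a single drug or a fixed anchor-drug dose plus five library-drug doses (not always all listed) in √10 steps, and values are medians of duplicate plates imaged at 4×.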

[2] = compound: C[C@@H](N)c1ccc(C(=O)Nc2ccnc3[nH]ccc23)cc1 + Nc1nc2[nH]cc(CCc3ccc(C(=O)N[C@@H](CCC(=O)O)C(=O)O)cc3)c2c(=O)[nH]1 [Pemetrexed] (partner 0.2 µM)
How it was run: as §1

[3] = compound: C1CNCCC1C2=CC(=NN2)C3=CC=NC=C3 + Cc1nc(NC(=O)N2CCC[C@H]2C(N)=O)sc1-c1ccnc(C(C)(C)C(F)(F)F)c1 [Alpelisib] (partner 2 µM)
How it was run: as §1

[4] = compound: C1CNCCC1C2=CC(=NN2)C3=CC=NC=C3 + Cc1nc(Nc2ncc(C(=O)Nc3c(C)cccc3Cl)s2)cc(N2CCN(CCO)CC2)n1 [Dasatinib] (partner 0.075 µM)
How it was run: as §1

Cell Line	relative viability ([1]; first compound 0.04 µM)	relative viability ([1]; first compound 0.1265 µM)	relative viability ([1]; first compound 0.4 µM)	relative viability ([1]; first compound 1.265 µM)	relative viability ([1]; first compound 4 µM)	relative viability ([2]; first compound 0.04 µM)	relative viability ([2]; first compound 0.1265 µM)	relative viability ([2]; first compound 0.4 µM)	relative viability ([2]; first compound 1.265 µM)	relative viability ([2]; first compound 4 µM)	relative viability ([3]; first compound 0.08 µM)	relative viability ([3]; first compound 0.8 µM)	relative viability ([3]; first compound 2.53 µM)	relative viability ([3]; first compound 8 µM)	relative viability ([4]; first compound 0.08 µM)	relative viability ([4]; first compound 0.8 µM)	relative viability ([4]; first compound 2.53 µM)	relative viability ([4]; first compound 8 µM)
NCI-H1792	0.796	0.77	0.736	0.869	0.65	0.817	0.731	0.875	0.72	0.584	0.637	0.519	0.773	0.618	0.774	0.836	0.781	0.854
NCI-H596	0.643	0.592	0.747	–	0.709	0.528	0.534	0.504	0.509	0.41	0.508	0.488	0.526	0.532	0.602	0.562	0.654	0.664
NCI-H1563	0.796	0.767	0.679	0.816	0.846	0.772	0.915	0.867	0.413	0.706	0.709	0.932	0.95	0.989	0.451	0.465	0.486	0.485
NCI-H460	0.748	0.602	0.746	0.633	0.897	0.0682	0.063	0.0594	0.0603	0.0691	0.381	0.343	0.593	0.62	0.387	0.454	0.537	0.529
HCC-366	0.787	0.847	0.993	–	1.08	0.154	0.148	0.163	0.241	0.184	0.561	0.233	0.426	0.378	0.405	0.898	0.618	0.594
NCI-H2085	0.744	0.816	0.77	0.397	0.717	0.825	0.863	0.732	0.733	0.668	0.926	0.514	1.02	0.98	0.244	–	0.296	0.215
PC-14	0.846	0.968	0.904	0.712	0.625	0.139	0.126	0.138	–	0.169	0.938	0.913	1.1	0.923	0.245	0.272	0.296	0.221
HOP-62	0.819	0.76	0.852	0.745	0.821	0.286	0.344	0.252	0.298	0.288	0.734	0.933	1.11	0.858	0.691	0.635	0.703	0.648
NCI-H2087	1.02	0.721	0.924	–	0.613	0.654	0.651	0.65	0.571	0.577	0.862	1.07	1.07	0.985	0.662	1.02	0.75	0.84
NCI-H1793	0.322	0.284	0.254	–	0.355	1.02	0.978	0.94	–	1	0.659	0.569	0.783	0.739	0.335	0.357	0.352	0.404
PC-3 [JPC-3]	0.789	0.76	0.783	0.775	0.792	1.12	1.07	1.16	1.07	0.88	1	1.03	1.05	1.02	0.982	1.1	1.01	0.966
H3255	0.624	0.727	0.745	0.725	0.783	0.556	0.554	0.552	0.555	0.501	0.674	0.646	0.858	0.734	0.352	0.378	0.369	0.488
EMC-BAC-2	0.294	0.399	0.299	0.346	0.279	0.401	0.422	0.452	0.471	0.402	0.755	0.659	0.72	0.758	0.261	0.349	0.352	0.395
CAL-12T	1.19	0.784	0.928	0.3	0.78	1.23	1.39	1.43	1.49	1.27	0.929	1.56	1.51	1.28	0.49	0.49	0.625	0.475
NCI-H650	–	0.508	0.503	0.488	0.421	–	0.932	0.809	–	0.614	0.86	1.08	1.22	0.997	0.468	0.45	0.5	0.428
SK-MES-1	0.61	0.574	0.573	0.673	0.602	0.901	0.964	0.906	0.887	0.877	0.961	0.688	0.903	0.885	0.424	0.221	0.465	0.368
NCI-H1355	0.459	0.415	0.432	0.343	0.379	1.1	1.06	1.01	1.06	1.05	0.826	0.706	0.804	0.822	0.651	0.718	0.798	0.695
NCI-H838	0.395	0.45	0.413	0.339	0.253	0.259	0.244	0.24	0.205	0.181	0.984	1.11	1.03	0.996	0.308	0.295	0.277	0.3
LK-2	0.295	0.176	0.212	–	0.249	0.345	0.264	0.22	0.282	0.362	1.09	1.11	1.21	1.24	0.236	0.388	0.275	0.482
